Test results published in publication PMC7214178, “Ligand‐specific recycling profiles determine distinct potential for chronic analgesic tolerance of delta‐opioid receptor (DOPr) agonists” (Journal of Cellular and Molecular Medicine, 2020).

Legend:
[1] = system: rat model of streptozotocin (STZ)‐induced diabetic neuropathy; experiment: Heterologous tolerance to a common probe (deltorphin II ED50) before and after 6‐day treatment, with or without 6634449; type: in vivo; conditions: for Heterologous tolerance (response to deltorphin II ED50) with 6634449 co‐administration: 6634449 or vehicle i.t. 20 min before each of six agonist injections at ED80, five rats/group; for Tolerance to common probe deltorphin II (ED50) after 6‐day treatment: probe i.t. one day before and one day after six i.t. injections at ED80, 7 rats/group
Protocol: (§1) Type I diabetes was induced by systemic injection of streptozotocin (STZ, 65 mg/kg, i.p.) according to a standardized methodology, which allows development of persistent diabetic neuropathy after the first week of treatment. ^20 At the end of the first week, blood was extracted from the tail vein and blood glucose levels were measured with a glucometer (Accu‐Chek Aviva; Roche Diagnostics) prior to evaluation of analgesia on the second week.
(§2) Mechanical allodynia is the consequence of maladaptive neuroplasticity following nerve damage. ^24 In a model of diabetic neuropathy as the one used in this study, hyperglycaemia contributes to generate reactive oxygen species which induce microglia activation and inflammatory mediators. ^25 , ^26 These mediators attenuate the activity of Gly/GABA interneurons in superficial layers ^24 , ^27 , ^28 , ^29 and disrupt the inhibitory control that prevents innocuous touch stimuli from producing pain which leads to allodynia. ^30 DOPrs are expressed in these light‐touch mechanoreceptors ^31 and up‐regulated during sensitization, ^32 , ^33 making DOPr agonists elective for relieving this type of pain. Allodynia was evaluated using Von Frey filaments as previously described. ^19 Briefly, rats were accustomed for 15 min on a metal mesh floor under an inverted plastic box (20 × 10 × 10 cm) in a quiet room dedicated to this behavioural test. After habituation, the plantar surface of the right and left hind legs was alternately touched (6‐8 seconds) with von Frey filaments of progressively wider diameter in order to find the threshold of pressure required to produce withdrawal. The mechanical threshold response was obtained by consigning the pressure in grams that would result in withdrawal of the paw in 50% of 10 trials. A normal rat responds to tactile pressures of 12‐15 g whereas neuropathic rats respond to pressures of 4‐6 g. ^24
To evaluate homologous tolerance, each agonist was injected i.t. once daily for six consecutive days, at ED80 derived from dose‐response curves (deltorphin‐IIED80: 0.30 nmol/30 μL; TIPPED80: 0.40 nmol/30 μL; SB235863ED80: 1.7 nmol/30 μL and SNC‐80ED80: 0.55 nmol/30 μL). Immediately after drug administration, mechanical allodynia was measured every 15 minutes until the analgesic response disappeared. […] Prior to starting any pharmacological treatment, the presence of allodynia was confirmed. Treatments and measures were carried out randomly by two different experimenters to ensure blinding to treatment for the person assessing allodynia. In a series of experiments, an inhibitor of endothelin‐converting enzyme 2 (ECE2), 6634449, was administered by i.t injection (3 nmol/30 μL) 20 minutes prior to administration of DOPr ligands from 2 to 7 days. The vehicle (4% DMSO diluted in CSF sterile) was given as control. The dose of 6634449 used in this study was based on results previously published. ^25
Figure 1 Experimental design. One week after STZ administration, repeated treatments with DOPr agonists were started. Before starting chronic treatment with ED80 of deltorphin II, TIPP, SB235863 or SNC‐80, animals were tested to establish the baseline allodynia. Immediately after, they were injected with deltorphin II at a dose corresponding to ED50, which was repeated at the end of treatment. Allodynia measures were taken every 15 min after each injection until analgesic effects disappeared. Chronic tolerance was evaluated by comparing analgesic response to successive i.t. injections of each agonist between days 2 and 6. Difference in analgesic response to deltorphin II ED50 in days 1 and 8 allowed to establish tolerance induced by the different agonists to this common probe

[2] = system: rat model of streptozotocin (STZ)‐induced diabetic neuropathy; experiment: Acute anti‐allodynic dose‐response after single i.t. injection (von Frey); type: in vivo; conditions: for Analgesia 60 min after injection vs vehicle: i.t. doses that reached maximal effect, one‐way ANOVA vs control, n = 3‐4; for Area under the curves, pEC50 ± SEM (M) / Peak analgesic response, pEC50 ± SEM (M): i.t. in 30 μL; for Area under the curves, pEC50 ± SEM (M) / Area under the curves, Relative EMAX ± SEM: analgesic response integrated over time (AUC); for Area under the curves, pEC50 ± SEM (M) / Peak analgesic response, pEC50 ± SEM (M) / Peak analgesic response, Relative EMAX ± SEM: four‐parameter logistic fit; for Area under the curves, pEC50 ± SEM (M) / Peak analgesic response, pEC50 ± SEM (M) / Area under the curves, Relative EMAX ± SEM / Peak analgesic response, Relative EMAX ± SEM: 3‐4 rats/dose; for Peak analgesic response, pEC50 ± SEM (M) / Peak analgesic response, Relative EMAX ± SEM: mechanical withdrawal threshold 30 min after injection; for Area under the curves, Relative EMAX ± SEM / Peak analgesic response, Relative EMAX ± SEM: normalized to maximal asymptote of agonist with largest effect
Source text: Adult male Sprague Dawley (SD) rats, weighing 235‐250 g, were purchased from Charles River laboratories and housed in a controlled environment on a 12‐hour light/dark cycle with free access to food and water. All experimental methods and animal care procedures were approved by the Animal Care Committee of University of Montreal (CDEA protocol 15‐013), in accordance with the guiding principles as enunciated by the Canadian Council on Animal Care.
as §1, §2
In a first series of experiments, dose‐response curves to SNC‐80, SB235863, deltorphin II and TIPP were constructed following intrathecal (i.t.) injection of increasing doses until no increment in maximal anti‐allodynic response was observed. […] Each group of rats received only one ligand and a single dose per day. Saturation of the analgesic response on mechanical allodynia required assessing 5‐6 doses per ligand administered over a period of 5‐6 days, using 3‐4 animals/dose. Injections were made at mid‐lumbar level with a needle 23G × 1/2 under light anaesthesia using 4% isoflurane inhalation in a 1:1 mixture of oxygen and air. The animals were allowed to recover for 15 minutes before mechanical thresholds were determined. Threshold measures were repeated every 15 minutes until the analgesic response disappeared. Peak analgesic responses (30 minutes) or responses integrated over time (area under the curve: AUC) were consigned and plotted as a function of treatment dose. Curves were fitted with the four‐parameter logistic equation in GraphPad 7 to yield ED80 and ED50 values that were then used to treat rats for assessment of chronic tolerance. For each drug, the stock solution was prepared as follows: deltorphin II was dissolved in sterile artificial cerebrospinal fluid (CSF); TIPP and SB235863 stocks were dissolved in sterile water and SNC‐80 in DMSO. Each stock solution was diluted in CSF at required concentrations and injected i.t. in a final volume of 30 μL. Control animals were injected with 30 μL of CSF. At the end of behavioural experiments, rats were anaesthetized by isoflurane and killed by decapitation.

DOPr = system: DOPr; set-up: method as in PMID 24174495; conditions: cited from earlier work
[3] = i.t., anti‐allodynic effect, STZ rats

Compound	Heterologous tolerance (response to deltorphin II ED50) with 6634449 co‐administration [1]	Tolerance to common probe deltorphin II (ED50) after 6‐day treatment [1]	Analgesia 60 min after injection vs vehicle [2]	Area under the curves, pEC50 ± SEM (M) ([2]; STZ rats)	Peak analgesic response, pEC50 ± SEM (M) ([2]; STZ rats)	Area under the curves, Relative EMAX ± SEM ([2]; i.t., STZ rats)	Peak analgesic response, Relative EMAX ± SEM ([2]; i.t., STZ rats)	ED80 derived from dose‐response curves [2, 3] [nmol/30 μL]	Internalization in HEK cells (DOPr)	ED50 (challenge dose) [2, 3] [nmol/30 μL]
CCC(C)COC(=O)c1[nH]c2c(c1C)CC1C3Cc4ccc(OC)c5c4C1(CCN3C)C2O5.Cl (stereo not drawn) [SB235863, [8R‐(4bS*,8aα,8aβ,12bβ)]7,10‐dimethyl‐1‐methoxy‐11‐(2‐ethylpropyl)oxycarbonyl 5,6,7,8,12,12b‐hexahydro‐(9H)‐4,8‐methanobenzofuro[3,2‐e]pyrrolo[2,3‐g]isoquinoline hydrochloride]	remained unchanged	induced cross‐tolerance	still present	4.44 ± 0.03	4.50 ± 0.05	100.6 ± 5.1	84.4 ± 8.8	1.7	minimal internalization	–
C=CCN1C[C@H](C)N([C@H](c2ccc(C(=O)N(CC)CC)cc2)c2cccc(OC)c2)C[C@H]1C [SNC‐80, (+)‐4‐[(αR)‐α‐((2S,5R)‐4‐allyl‐2,5‐dimethyl‐1‐piperazinyl)‐3‐methoxybenzyl]‐N,N‐diethylbenzamide]	remained unchanged	induced cross‐tolerance	no longer significantly different from vehicle	4.95 ± 0.18	5.15 ± 0.06	87.9 ± 22.1	100 ± 7.8	0.55	marked internalization	–
deltorphin II	reduced analgesic effect	without effect	no longer significantly different from vehicle	5.09 ± 0.05	5.22 ± 0.86	80.5 ± 8.0	91.0 ± 9.0	0.30	marked internalization	0.23
